Experimental data as given in patent US9382197B2, “Substituted hydroxamic acids and uses thereof” (Millennium Pharmaceuticals, Inc., priority 2010, dated 2016).

Target: T1, purified human HDAC6 (Homo sapiens, UniProt Q9UBN7)
T1 construct: purchased BPS Bioscience 5006
T1 sequence (Q9UBN7 1-1215): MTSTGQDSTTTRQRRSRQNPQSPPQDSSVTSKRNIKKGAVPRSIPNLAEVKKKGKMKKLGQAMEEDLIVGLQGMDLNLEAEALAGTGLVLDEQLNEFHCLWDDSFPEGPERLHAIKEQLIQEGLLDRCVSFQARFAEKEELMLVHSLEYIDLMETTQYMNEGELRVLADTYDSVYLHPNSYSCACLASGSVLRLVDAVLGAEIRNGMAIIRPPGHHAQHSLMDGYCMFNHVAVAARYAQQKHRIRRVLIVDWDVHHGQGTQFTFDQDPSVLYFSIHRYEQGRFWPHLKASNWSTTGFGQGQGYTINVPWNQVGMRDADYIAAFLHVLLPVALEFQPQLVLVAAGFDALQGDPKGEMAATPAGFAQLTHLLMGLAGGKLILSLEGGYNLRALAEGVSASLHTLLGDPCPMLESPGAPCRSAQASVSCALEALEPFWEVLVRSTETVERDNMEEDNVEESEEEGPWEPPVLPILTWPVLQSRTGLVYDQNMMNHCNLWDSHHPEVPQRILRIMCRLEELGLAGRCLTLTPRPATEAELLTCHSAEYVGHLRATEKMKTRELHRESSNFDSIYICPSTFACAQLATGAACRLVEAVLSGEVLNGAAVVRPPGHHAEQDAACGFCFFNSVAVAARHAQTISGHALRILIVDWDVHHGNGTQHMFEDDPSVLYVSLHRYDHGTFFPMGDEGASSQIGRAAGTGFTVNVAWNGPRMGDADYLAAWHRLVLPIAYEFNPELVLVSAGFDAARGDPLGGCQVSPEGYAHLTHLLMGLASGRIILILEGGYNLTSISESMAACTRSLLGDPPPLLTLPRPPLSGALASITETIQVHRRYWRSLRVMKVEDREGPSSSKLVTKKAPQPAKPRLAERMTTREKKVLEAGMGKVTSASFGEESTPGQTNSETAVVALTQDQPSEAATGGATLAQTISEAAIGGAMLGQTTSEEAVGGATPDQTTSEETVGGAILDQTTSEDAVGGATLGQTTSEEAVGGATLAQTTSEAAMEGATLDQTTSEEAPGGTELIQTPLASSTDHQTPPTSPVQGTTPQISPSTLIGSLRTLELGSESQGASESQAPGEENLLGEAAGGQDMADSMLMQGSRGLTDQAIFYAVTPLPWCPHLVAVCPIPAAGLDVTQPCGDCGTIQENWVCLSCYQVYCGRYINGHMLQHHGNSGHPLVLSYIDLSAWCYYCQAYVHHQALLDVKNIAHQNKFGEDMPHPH
Experiment: HDAC6 Enzyme Assay
Format: biochemical
Procedure, shortened: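 Purified human HDAC6 incubated 1 h at 30 °C with Ac-Arg-Gly-Lys(Ac)-AMC and compound; trichostatin A stop, trypsin release of AMC, fluorescence Ex 340/Em 460 nm. IC50 from concentration–response relative to DMSO.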

[1] = purified human HDAC6, substrate Ac-Arg-Gly-Lys(Ac)-AMC, 1 hour at 30° C., reported as bins
[2] = bin: greater than 500 nM and less than 1 μM (lower bound in nM, upper bound in μM)

CC(NC(=O)CC(C)(C)C)c1ccc(C(=O)NO)cc1 (stereo not shown) [Compound I-144, 4-{1-[(3,3-dimethylbutanoyl)amino]ethyl}-N-hydroxybenzamide]
IC50 (bin: greater than 1 μM): > 1000 nM

Cn1ccc2cc(C(=O)NC(c3ccc(C(=O)NO)cc3)C(C)(C)C)ccc21 (stereo not shown) [Compound I-145, N-(1-{4-[(hydroxyamino)carbonyl]phenyl}-2,2-dimethylpropyl)-1-methyl-1H-indole-5-carboxamide]
IC50 [1]: < 100 nM

CCC[C@@H](NC(=O)c1ccc(OC)cc1)c1ccc(C(=O)NO)cc1 [Compound I-146, N-((1R)-1-{4-[(hydroxyamino)carbonyl]phenyl}butyl)-4-methoxybenzamide]
IC50 [1]: < 100 nM

Cc1ccc(C(=O)NC(C)c2ccc(C(=O)NO)cc2)s1 (stereo not shown) [Compound I-147, N-(1-{4-[(hydroxyamino)carbonyl]phenyl}ethyl)-5-methylthiophene-2-carboxamide]
IC50 [1]: < 100 nM

CC(NC(=O)Nc1ccc2c(c1)CCO2)c1ccc(C(=O)NO)cc1 (stereo not shown) [Compound I-148, 4-(1-{[(2,3-dihydro-1-benzofuran-5-ylamino)carbonyl]amino}ethyl)-N-hydroxybenzamide]
IC50 [1]: < 100 nM

CC(NC(=O)C1CCCCC1)c1cccc(C(=O)NO)c1 (stereo not shown) [Compound I-149, 3-{1-[(cyclohexylcarbonyl)amino]ethyl}-N-hydroxybenzamide]
IC50 (bin: greater than 1 μM): > 1000 nM

CC(NC(=O)Nc1ccc(OC(F)F)cc1)c1ccc(C(=O)NO)cc1 (stereo not shown) [Compound I-150, 4-{1-[({[4-(difluoromethoxy)phenyl]amino}carbonyl)amino]ethyl}-N-hydroxybenzamide]
IC50 [1]: < 100 nM

CC(NC(=O)c1ccc(C(F)(F)F)cc1)c1cccc(C(=O)NO)c1 (stereo not shown) [Compound I-151, N-hydroxy-3-(1-{[4-(trifluoromethyl)benzoyl]amino}ethyl)benzamide]
IC50 [2]: 500 to 1000 nM

CC(NC(=O)C1(C)CC1)c1ccc(C(=O)NO)cc1 (stereo not shown) [Compound I-154, N-hydroxy-4-(1-{[(1-methylcyclopropyl)carbonyl]amino}ethyl)benzamide]
IC50 [1]: < 100 nM

CC(C)C(NC(=O)c1cc(C(F)(F)F)ccc1C(F)(F)F)c1ccc(C(=O)NO)cc1 (stereo not shown) [Compound I-155, N-(1-{4-[(hydroxyamino)carbonyl]phenyl}-2-methylpropyl)-2,5-bis(trifluoromethyl)benzamide]
IC50 (bin: greater than 1 μM): > 1000 nM

Cc1cccc(C)c1NC(=O)NC(C)c1ccc(C(=O)NO)cc1 (stereo not shown) [Compound I-156, 4-[1-({[(2,6-dimethylphenyl)amino]carbonyl}amino)ethyl]-N-hydroxybenzamide]
IC50 [1]: 100 to 500 nM

CC(C)[C@H](NC(=O)C12CC3CC(CC(C3)C1)C2)c1ccc(C(=O)NO)cc1 [Compound I-157, N-((1S)-1-{4-[(hydroxyamino)carbonyl]phenyl}-2-methylpropyl)adamantane-1-carboxamide]
IC50 (bin: greater than 1 μM): > 1000 nM

CC(C)(C)C(NC(=O)c1csc2ccccc12)c1ccc(C(=O)NO)cc1 (stereo not shown) [Compound I-158, N-(1-{4-[(hydroxyamino)carbonyl]phenyl}-2,2-dimethylpropyl)-1-benzothiophene-3-carboxamide]
IC50 [1]: 100 to 500 nM

COc1ccc(CC(=O)NC(C)c2ccc(C(=O)NO)cc2)cc1 (stereo not shown) [Compound I-159, N-hydroxy-4-(1-{[(4-methoxyphenyl)acetyl]amino}ethyl)benzamide]
IC50 (bin: greater than 1 μM): > 1000 nM

Cc1cc(C)n2nc(C(=O)NC(C)c3ccc(C(=O)NO)cc3)cc2n1 (stereo not shown) [Compound I-160, N-(1-{4-[(hydroxyamino)carbonyl]phenyl}ethyl)-5,7-dimethylpyrazolo[1,5-a]pyrimidine-2-carboxamide]
IC50 [1]: < 100 nM

CC(C)(C)C(NC(=O)C12CC3CC(CC(C3)C1)C2)c1ccc(C(=O)NO)cc1 (stereo not shown) [Compound I-162, N-(1-{4-[(hydroxyamino)carbonyl]phenyl}-2,2-dimethylpropyl)adamantane-1-carboxamide]
IC50 (bin: greater than 1 μM): > 1000 nM

CC(NC(=O)Nc1ccc(C(F)(F)F)cc1Cl)c1ccc(C(=O)NO)cc1 (stereo not shown) [Compound I-163, 4-{1-[({[2-chloro-4-(trifluoromethyl)phenyl]amino}carbonyl)amino]ethyl}-N-hydroxybenzamide]
IC50 [1]: < 100 nM

COc1cc(C(=O)NC(C)c2ccc(C(=O)NO)cc2)ccc1F (stereo not shown) [Compound I-164, 4-fluoro-N-(1-{4-[(hydroxyamino)carbonyl]phenyl}ethyl)-3-methoxybenzamide]
IC50 [1]: < 100 nM

CC(NC(=O)c1cnccn1)c1cccc(C(=O)NO)c1 (stereo not shown) [Compound I-165, N-(1-{3-[(hydroxyamino)carbonyl]phenyl}ethyl)pyrazine-2-carboxamide]
IC50 (bin: greater than 1 μM): > 1000 nM

Cc1nn(C)cc1C(=O)NC(C)c1cccc(C(=O)NO)c1 (stereo not shown) [Compound I-167, N-(1-{3-[(hydroxyamino)carbonyl]phenyl}ethyl)-1,3-dimethyl-1H-pyrazole-4-carboxamide]
IC50 (bin: greater than 1 μM): > 1000 nM

Cc1c(C(=O)N[C@H](C)c2cccc(C(=O)NO)c2)oc2ccccc12 [Compound I-169, N-((1R)-1-{3-[(hydroxyamino)carbonyl]phenyl}ethyl)-3-methyl-1-benzofuran-2-carboxamide]
IC50 (bin: greater than 1 μM): > 1000 nM

CCC[C@@H](NS(=O)(=O)c1ccc(C(F)(F)F)cc1)c1ccc(C(=O)NO)cc1 [Compound I-171, N-hydroxy-4-[(1R)-1-({[4-(trifluoromethyl)phenyl]sulfonyl}amino)butyl]benzamide]
IC50 (bin: greater than 1 μM): > 1000 nM

CC(C)C(NC(=O)c1csc(-c2ccccc2)n1)c1ccc(C(=O)NO)cc1 (stereo not shown) [Compound I-172, N-(1-{4-[(hydroxyamino)carbonyl]phenyl}-2-methylpropyl)-2-phenyl-1,3-thiazole-4-carboxamide]
IC50 [1]: < 100 nM

CC(C)C(NC(=O)c1cc(C(F)(F)F)cc(C(F)(F)F)c1)c1ccc(C(=O)NO)cc1 (stereo not shown) [Compound I-173, N-(1-{4-[(hydroxyamino)carbonyl]phenyl}-2-methylpropyl)-3,5-bis(trifluoromethyl)benzamide]
IC50 [1]: 100 to 500 nM

Cc1[nH]c2ccccc2c1CC(=O)NC(c1ccc(C(=O)NO)cc1)C(C)C (stereo not shown) [Compound I-174, N-hydroxy-4-(2-methyl-1-{[(2-methyl-1H-indol-3-yl)acetyl]amino}propyl)benzamide]
IC50 [1]: 100 to 500 nM

Cc1cccc(NC(=O)NC(C)c2ccc(C(=O)NO)cc2)c1C (stereo not shown) [Compound I-175, 4-[1-({[(2,3-dimethylphenyl)amino]carbonyl}amino)ethyl]-N-hydroxybenzamide]
IC50 [1]: < 100 nM

Cc1cc(C)c(S(=O)(=O)NC(C)c2ccc(C(=O)NO)cc2)c(C)c1 (stereo not shown) [Compound I-176, N-hydroxy-4-{1-[(mesitylsulfonyl)amino]ethyl}benzamide]
IC50 [1]: 100 to 500 nM

C[C@@H](NC(=O)C(C)(C)C)c1cccc(C(=O)NO)c1 [Compound I-177, 3-{(1R)-1-[(2,2-dimethylpropanoyl)amino]ethyl}-N-hydroxybenzamide]
IC50 (bin: greater than 1 μM): > 1000 nM

CC(NS(=O)(=O)c1ccc(-c2cnco2)cc1)c1ccc(C(=O)NO)cc1 (stereo not shown) [Compound I-178, N-hydroxy-4-[1-({[4-(1,3-oxazol-5-yl)phenyl]sulfonyl}amino)ethyl]benzamide]
IC50 [1]: 100 to 500 nM

CC(NC(=O)c1cscn1)c1cccc(C(=O)NO)c1 (stereo not shown) [Compound I-179, N-(1-{3-[(hydroxyamino)carbonyl]phenyl}ethyl)-1,3-thiazole-4-carboxamide]
IC50 [2]: 500 to 1000 nM

CC(NC(=O)c1cc2oc(-c3ccccc3)cc2n1C)c1cccc(C(=O)NO)c1 (stereo not shown) [Compound I-180, N-(1-{3-[(hydroxyamino)carbonyl]phenyl}ethyl)-4-methyl-2-phenyl-4H-furo[3,2-b]pyrrole-5-carboxamide]
IC50 (bin: greater than 1 μM): > 1000 nM
